# Patent US10543223B2, “Mannose derivatives useful for treating pathologies associated with adherent E. coli” (ENTEROME, priority 2015, dated 2020)
# How the values were obtained:
# cystitis murine model = settings: Wellens et al, 2008; cited from earlier work
# [1] = system: uropathogenic E. coli strain UTI89; assay: Hemagglutination inhibition assay, guinea pig erythrocytes, E. coli strain UTI89; assay type: cell-based; settings: for inhibition of UTI89-induced hemagglutination (in words): FIG. 1; for MIC: Escherichia coli, read-out: minimal inhibitory concentration (MIC) / inhibition titer of haemagglutination
# Procedure: Interaction of E. coli FimH adhesins with the glycocalyx of guinea pig erythrocytes forms a crosslinked network in the wells. Glycoconjugates, added in a 2-fold dilution series, prevent the agglutination reaction. The inhibition titer is defined as the lowest concentration of the glycoconjugate at which hemagglutination is still inhibited. Several strains of E. coli were grown statically overnight in LB at 37° C., washed three times in ice-cold phosphate-buffered saline, and redissolved. A 2-fold dilution of glycoconjugates with a starting concentration of 1 mM was prepared in 25 μL of PBS with 10% of DMSO. Importantly, the pipet tip was changed at every dilution step to avoid carry-over. Next, the bacterial solution (25 μL) was added to the 2-fold dilution series of the compound. Finally, 50 μL of guinea pig red blood cells, washed and diluted in the buffer to 5% of the blood volume, was added to reach 100 μL. The plates were left on ice for one night before read-out.
# Inhibition of E. coli Strain UTI89 Isolated from Patient with Urinary Tract Infection.
# The anti-adhesive capacity of the inhibitors was evaluated against ten E. coli strains isolated from CD patients, urinary tract infections, and hip prosthesis infections.
# AIEC = settings: in vivo; cited from earlier work
# [2] = Faeces concentrations and recovery after IV and PO administration to rats; assay type: in vivo, Sprague Dawley rats; settings: Sprague Dawley, rat, faeces, po, 10 mg/kg, PO 10 mg/kg, 0-24 h, mean of 3 rats; read-out: Recovery in faeces, mean (quantity found in faeces out of the administered quantity)
# Procedure: Plasma and faeces concentrations after administration of Compound 1b and for compound 13 of WO 2014/016361 at 1 mg/kg by intravenous route and 10 mg/kg by oral route to Sprague Dawley rats Blank rat faeces are homogenized with 3 volumes of UHQ water until obtention of a paste. Then 100 μL of the homogenate are spiked with the molecules and precipitated with 300 μL of acetonitrile. The concentration ranges tested are: • 0.5 ng/mL to 1000 ng/mL for plasma, • 4 to 2000 ng/g for faeces, corresponding to 1 to 500 ng/mL of faeces homogenate. 3. In-Life Part After administration, the animals are placed in individual metabolic cages in order to collect faeces samples during 24 hours. Faeces samples are collected over the 24 hours of the experiment. They are precisely weighed and 3 volumes of UHQ water are added. The mixture is homogeneized until obtention of a paste. Then 100 μL of the homogenate are taken and extracted with 300 μL of Acetonitrile. Analysis is performed using LC-MS/MS determination according to previous analytical test results.
# AIEC strain LF82 = assay: Adhesion assay of AIEC LF82 strain on intestinal epithelial cells T84 (pre- and post-incubation); assay type: cell-based, E. coli; settings: pre-incubation (10 μM) and post-incubation (50 μM) protocols
# Procedure: E. coli strain LF82 isolated from an ileal biopsy of a CD patient was used as the AIEC reference strain. Bacteria were grown overnight at 37° C. in Luria-Bertani (LB) broth, and a bacterial suspension was prepared at a concentration of 1.5×10^8 bacteria/mL in phosphate buffer saline (PBS) for adhesion assays. The human intestinal cell line T84, purchased from American Type Culture Collection (ATCC, CCL-248), was maintained in an atmosphere containing 5% CO2 at 37° C. in the culture medium recommended by ATCC. T84 cells were seeded in 48-well tissue culture plates at a density of 1.5×10^5 cells/well and incubated at 37° C. for 48 h.
# AIEC reference strain LF82 was incubated for 1 h with HM or thiazole-bearing mannosides at final concentrations of 0.1, 1, or 10 μM, then bacteria/mannosides solution were incubated with T84 cells in order to have a multiplicity of infection (MOI) of 10 bacteria per cell (1.5×10^6 bacteria/well) for 3 h with. Effects of mannoside treatment were compared with HM. Monolayers were washed three times with PBS and lysed with 1% Triton X-100 (Sigma) in deionized water. Samples were diluted and plated onto LB agar plates to determine the number of colony-forming units (CFU). […]
# [3] = Stability test in 0.1 M HCl (anomerization followed by 1H NMR); assay type: physicochemical; settings: for isomerization to the β-mannose derivative under acidic conditions: samples at t=0, 1 h, 2 h and 8 h, 1H NMR in D2O
# Procedure: Compound 6 of WO 2014/016361 was dissolved in 0.1 M HCl and sample were freeze dried at t=0, 1 h, 2 h and 8 h (see FIG. 10). […] Indeed, under the acidic conditions, an equimolar α/β mixture at T=0 anomerize to a 1/3 α/β mixture at T=8 h.
# [4] = target: T1, FimH lectin domain (residues 1-158) from E. coli strain UTI89 (Escherichia coli, UniProt Q1R2J4); assay: Isothermal titration calorimetry of FimH lectin domain; assay type: binding
# T1 construct: FimH lectin domain (residues 1-158) from E. coli strain UTI89; made in house
# Procedure: The recombinantly expressed FimH lectin domain (residues 1-158) from E. coli strain UTI89 was purified as described previously by Wellens et al. The FimH protein solution was put into the measurement cell (1452 μl) of a VP-ITC microcalorimeter (Malvern), at a concentration of 11.83 μM in the ITC working buffer (20 mM Na-Hepes at pH 7.4 and 150 mM NaCl). Compound 3c at 100 μM concentration was titrated into the FimH solution using 38 injections of 7 μl, leading to 38 heat peaks measured in μcal/sec (FIG. 12). The heat peaks were integrated (kCal/mole of injectant) to be presented in an enthalpogram with 38 data points (FIG. 12), used for the fitting to the model of one kind of binding sites (Microcal ITC Origin software) in order to derive the affinity (K) and the stoichiometry (N) of the interaction (FIG. 13). Using the constant absolute temperature (T) of the experiment, the entropic contribution ΔS was calculated (FIG. 13).
structure (smiles),measurement,setting,value
"CCCCCCCO[C@H]1O[C@H](CO)[C@@H](O)[C@H](O)[C@@H]1O [HM, heptylmannose]",concentration required to observe a significant bacterial load reduction,cystitis murine model,millimolar
same,inhibition of UTI89-induced hemagglutination (in words),[1],potent inhibitors
same,effect with AIEC in CEABAC 10 Crohn's disease model,AIEC,no effect
CC(=O)c1cnc(NC[C@H]2O[C@H](CO)[C@@H](O)[C@H](O)[C@@H]2O)s1 [Compound 2c],potency relative to HM at disrupting E. coli promoted hemagglutination,[1]; E. coli UTI89,8 fold
same,MIC,[1],0.098 µM
same,inhibition of UTI89-induced hemagglutination (in words),[1],potent inhibitors
"Cc1nc(-c2cnccn2)sc1C(=O)c1cnc(N[C@H]2O[C@H](CO)[C@@H](O)[C@H](O)[C@@H]2O)s1 [Compound 13 of WO 2014/016361, reference compound]",dose excreted,[2],52.4%
"CC(=O)c1cnc(SC[C@H]2O[C@H](CO)[C@@H](O)[C@H](O)[C@@H]2O)s1 [Compound 2b, 5-acetyl-2-((α-D-mannopyranos-1-yl)methylthioxy)thiazole]",potency to inhibit attachment of LF82 to T84 cells compared with heptylmannoside,AIEC strain LF82,more potent than the reference compound heptylmannoside
"CC(=O)c1cnc(C[C@H]2O[C@H](CO)[C@@H](O)[C@H](O)[C@@H]2O)s1 [Compound 1a, 5-acetyl-2-((α-D-mannopyranos-1-yl)methyl)thiazole]",isomerization to the β-mannose derivative under acidic conditions,[3],does not isomerize
Cc1nc(NCc2cn(CC3OC(CO)C(O)C(O)C3O)nn2)sc1C(=O)c1cnc(NCC2OC(CO)C(O)C(O)C2O)s1 (centres unmarked) [Compound 3c],Kd,[4],54.6 nM
same,ΔH,[4]; ITC,-23.630 ± 0.3755 kcal/mol
same,ΔS,"[4]; ITC, calculated using T of the experiment",−46.8 cal/mol/deg
same,n (stoichiometry),"[4]; ITC, one kind of binding sites model",0.874+/−0.00868 sites
"Cc1nc(-c2cnccn2)sc1C(=O)c1cnc(NC[C@H]2O[C@H](CO)[C@@H](O)[C@H](O)[C@@H]2O)s1 [Compound 2d, 5-(4-methyl-2-(pyrazin-2-yl)thiazol-5-ylcarbonyl)-2-(((α-D-mannopyranosyl)methyl)amino)-thiazole]",MIC,[1],3.12 µM
same,inhibition of UTI89-induced hemagglutination (in words),[1],potent inhibitors
CC(=O)c1cnc(N[C@H]2O[C@H](CO)[C@@H](O)[C@H](O)[C@@H]2O)s1 [6 of WO 2014/016361],α/β mixture ratio,"[3]; T=8 h, equimolar α/β mixture at T=0",1/3
same,isomerization to the β-mannose derivative under acidic conditions,[3],isomerizes to the corresponding β-mannose derivative
